Residue numbers refer to the chain shown, from its start.
Assays:
Opn5L1NC [1] = target: T1, Opn5L1NC (Gallus gallus, UniProt B3XZF4, E159K/Q174K, form not given); assay: LC-MS of tryptic peptide with retinal oxime at Cys188; type: binding; details: covalent (light-induced thio-adduct at Cys188); hydroxylamine, irradiation >500 nm
T1 construct: gene cOpn5L1; HEK293T, purified in dodecyl maltoside
T1 sequence (B3XZF4 20-310 E159K/Q174K limits assumed): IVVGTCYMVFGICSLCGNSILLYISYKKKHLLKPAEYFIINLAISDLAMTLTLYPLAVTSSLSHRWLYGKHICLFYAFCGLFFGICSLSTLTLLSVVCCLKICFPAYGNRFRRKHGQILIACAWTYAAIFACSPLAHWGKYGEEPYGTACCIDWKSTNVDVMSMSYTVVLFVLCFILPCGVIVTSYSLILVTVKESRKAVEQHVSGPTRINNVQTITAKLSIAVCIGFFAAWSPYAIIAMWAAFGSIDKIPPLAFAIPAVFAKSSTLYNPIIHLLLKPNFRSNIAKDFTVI

Opn5L1NC [2] = target: T2, Opn5L1NC (Gallus gallus, UniProt B3XZF4, C170T, form not given); assay: absorption spectrum of purified pigment and HPLC of extracted retinal; type: binding; details: covalent (retinylidene Schiff base); retinal 5 μM added to the cell culture; pH 7.0, 10 °C
T2 construct: gene cOpn5L1; HEK293T, purified in dodecyl maltoside
T2 sequence (B3XZF4 20-310 C170T limits assumed): T1 sequence (B3XZF4 20-310 E159K/Q174K limits assumed) with K140E, C151T, K155Q

[3] = target: T3, Opn5L1 bearing native N- and C- termini (Gallus gallus, UniProt B3XZF4, C170T); assay: as above; type: binding; details: covalent (retinylidene Schiff base)
T3 construct: gene cOpn5L1; HEK293T, purified
T3 sequence (B3XZF4 1-441 C170T): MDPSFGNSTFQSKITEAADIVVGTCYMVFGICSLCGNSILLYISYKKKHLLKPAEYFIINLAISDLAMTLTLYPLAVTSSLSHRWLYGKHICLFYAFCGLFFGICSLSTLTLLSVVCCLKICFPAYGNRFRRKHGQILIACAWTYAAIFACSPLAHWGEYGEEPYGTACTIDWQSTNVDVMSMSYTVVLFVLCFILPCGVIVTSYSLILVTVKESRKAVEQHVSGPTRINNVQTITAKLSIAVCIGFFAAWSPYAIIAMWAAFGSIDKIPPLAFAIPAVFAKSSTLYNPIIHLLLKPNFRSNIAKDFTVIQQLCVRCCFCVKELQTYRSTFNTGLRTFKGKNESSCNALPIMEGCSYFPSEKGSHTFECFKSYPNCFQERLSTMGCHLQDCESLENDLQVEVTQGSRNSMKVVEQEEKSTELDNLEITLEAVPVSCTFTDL

[4] = target: T4, Opn5L1 bearing native N- and C- termini (Gallus gallus, UniProt B3XZF4); assay: as above; type: binding; details: covalent (retinylidene Schiff base)
T4 construct: gene cOpn5L1; HEK293T, purified
T4 sequence (B3XZF4 1-441): T3 sequence (B3XZF4 1-441 C170T) with T170C

Opn5L1NC [5] = target: T5, Opn5L1NC (Gallus gallus, UniProt B3XZF4); assay: as above; type: binding; details: covalent (retinylidene Schiff base); 10 μM retinal, 4 °C, 8 h, dark; pH 7.0
T5 construct: gene cOpn5L1; HEK293T, purified in dodecyl maltoside
T5 sequence (B3XZF4 20-310 limits assumed): T1 sequence (B3XZF4 20-310 E159K/Q174K limits assumed) with K140E, K155Q

Opn5L1N = target: T6, Opn5L1N (Gallus gallus, UniProt B3XZF4); assay: […]GTPgammaS filter binding assay of Gi activation; type: biochemical; details: agonist; membrane fraction, 0.6 μM Gi, dark, pH 7.0, 25 °C; covalent (retinylidene Schiff base)
T6 construct: gene cOpn5L1; HEK293T membranes
T6 sequence (B3XZF4 20-441 limits assumed): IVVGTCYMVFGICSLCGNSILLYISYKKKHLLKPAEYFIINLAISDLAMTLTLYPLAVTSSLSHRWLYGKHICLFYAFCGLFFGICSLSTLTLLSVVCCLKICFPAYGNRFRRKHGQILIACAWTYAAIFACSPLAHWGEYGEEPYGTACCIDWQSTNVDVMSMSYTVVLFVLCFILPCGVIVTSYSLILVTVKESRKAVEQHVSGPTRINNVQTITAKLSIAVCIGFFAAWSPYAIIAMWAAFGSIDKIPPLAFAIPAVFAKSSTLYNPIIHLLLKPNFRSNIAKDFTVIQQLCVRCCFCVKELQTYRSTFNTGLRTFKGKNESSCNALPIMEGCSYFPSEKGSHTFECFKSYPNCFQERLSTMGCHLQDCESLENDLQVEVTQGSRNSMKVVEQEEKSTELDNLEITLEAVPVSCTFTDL

CC1=C(/C=C/C(C)=C/C=C/C(C)=C/C=O)C(C)(C)CCC1 [all-trans-retinal] was tested, and the “LC-MS of tryptic peptide with retinal oxime at Cys188” value (Opn5L1NC [1]) was “Light increased the amount of peptide with retinal oxime at the second cysteine”, the “absorption spectrum of purified pigment and HPLC of extracted retinal” value (shortened to “absorption spectrum”) (Opn5L1NC [2]) was “the C188T mutant of Opn5L1NC showed an absorption maximum similar to that of WT” and the “absorption spectrum” value [3] was “verified the function of Cys188 in the mutant Opn5L1 bearing native N- and C- termini”. For the same molecule, the “absorption spectrum” value [4] was “Opn5L1 bearing native N- and C- termini showed molecular characteristics indistinguishable”, the “absorption spectrum” value (Opn5L1NC [5]) was “we concluded that Opn5L1NC directly incorporates all-trans-retinal and not 11-cis-retinal” and the EC50 (Opn5L1N) was 620 nM.

— paper PMC5871776, “Opn5L1 is a retinal receptor that behaves as a reverse and self-regenerating photoreceptor” (Nature Communications, 2018)
